Columns and labels:
Format in all cases: biochemical
Btk = target: T1, Btk (Homo sapiens, UniProt Q06187); test: Btk in vitro inhibitory activity (one of Method A TR-FRET, Method B electrophoretic mobility shift, Method C radiometric filter binding); conditions: wild-type Btk; read-out: Btk-WT IC50
T1 construct: purified from insect cells as a full-length construct containing a N-terminal 6X-His tag; His6 (N); made in house; host or cells: insect cells (Method C)
Procedure, shortened: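 Three alternative formats were used. A radiometric filter-binding read used 8 nM full-length His-BTK with 0.2 mg/mL poly(Glu-Tyr) 4:1 (C); microfluidic separation of 1 μM FAM-peptide by 1 nM BTK gave IC50 from 12-point curves (B); TR-FRET at Km ATP, 0.5 nM Btk, gave Ki(app)-derived IC50 (A).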

TEC = target: T2, TEC (Homo sapiens, UniProt P42680); test: Inhibition of a panel of kinases (in vitro HotSpot kinase assay, 33P-ATP, 1 μM ATP); conditions: HotSpot kinase assay, 1 μM ATP
T2 sequence (P42680 1-631): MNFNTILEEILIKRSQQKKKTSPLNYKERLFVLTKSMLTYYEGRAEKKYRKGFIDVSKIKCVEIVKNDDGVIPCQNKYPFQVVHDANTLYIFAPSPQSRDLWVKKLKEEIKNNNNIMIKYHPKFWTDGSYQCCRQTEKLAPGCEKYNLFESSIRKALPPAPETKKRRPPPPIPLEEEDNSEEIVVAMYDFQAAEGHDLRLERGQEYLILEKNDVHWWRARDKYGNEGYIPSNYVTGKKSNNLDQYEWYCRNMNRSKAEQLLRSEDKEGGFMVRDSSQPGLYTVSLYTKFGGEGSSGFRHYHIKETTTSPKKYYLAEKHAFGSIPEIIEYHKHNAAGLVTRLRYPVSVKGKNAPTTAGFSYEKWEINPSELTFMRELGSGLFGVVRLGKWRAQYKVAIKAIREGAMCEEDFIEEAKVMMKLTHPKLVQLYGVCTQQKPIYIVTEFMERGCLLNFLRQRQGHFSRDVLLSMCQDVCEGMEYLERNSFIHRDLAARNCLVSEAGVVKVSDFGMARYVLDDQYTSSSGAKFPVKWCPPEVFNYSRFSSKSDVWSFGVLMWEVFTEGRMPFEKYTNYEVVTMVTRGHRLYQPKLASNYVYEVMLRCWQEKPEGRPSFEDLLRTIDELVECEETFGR
Procedure, shortened: (§1)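 At 1 μM ATP spiked with 33P-ATP, substrate phosphorylation by the purified enzymes gives the extent of inhibition.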

panel of kinases = target: T3, panel of kinases (Homo sapiens, UniProt P51813); test: Inhibition of a panel of kinases (in vitro HotSpot kinase assay, 33P-ATP, 1 μM ATP), other kinases; conditions: BMX wild-type, read-out: BMX-WT IC50
T3 sequence (P51813 1-675): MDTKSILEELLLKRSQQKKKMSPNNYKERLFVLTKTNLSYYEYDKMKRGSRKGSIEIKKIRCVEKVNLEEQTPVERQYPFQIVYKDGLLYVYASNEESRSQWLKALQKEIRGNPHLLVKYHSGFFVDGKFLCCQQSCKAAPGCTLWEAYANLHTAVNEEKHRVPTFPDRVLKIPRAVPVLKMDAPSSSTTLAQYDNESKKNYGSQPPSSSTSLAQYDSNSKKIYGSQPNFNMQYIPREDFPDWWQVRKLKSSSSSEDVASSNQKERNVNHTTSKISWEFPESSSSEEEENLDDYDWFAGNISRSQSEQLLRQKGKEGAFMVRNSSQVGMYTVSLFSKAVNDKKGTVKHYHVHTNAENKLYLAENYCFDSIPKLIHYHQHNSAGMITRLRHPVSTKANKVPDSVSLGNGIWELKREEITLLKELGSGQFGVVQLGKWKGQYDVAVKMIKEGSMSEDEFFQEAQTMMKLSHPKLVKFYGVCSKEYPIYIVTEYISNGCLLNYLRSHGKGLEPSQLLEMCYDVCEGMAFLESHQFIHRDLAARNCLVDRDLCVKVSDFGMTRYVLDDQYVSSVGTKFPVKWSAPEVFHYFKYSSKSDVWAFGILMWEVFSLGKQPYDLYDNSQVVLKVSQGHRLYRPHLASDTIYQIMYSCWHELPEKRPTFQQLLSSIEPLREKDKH
Procedure, shortened: as §1

T1 sequence (Q06187 whole entry): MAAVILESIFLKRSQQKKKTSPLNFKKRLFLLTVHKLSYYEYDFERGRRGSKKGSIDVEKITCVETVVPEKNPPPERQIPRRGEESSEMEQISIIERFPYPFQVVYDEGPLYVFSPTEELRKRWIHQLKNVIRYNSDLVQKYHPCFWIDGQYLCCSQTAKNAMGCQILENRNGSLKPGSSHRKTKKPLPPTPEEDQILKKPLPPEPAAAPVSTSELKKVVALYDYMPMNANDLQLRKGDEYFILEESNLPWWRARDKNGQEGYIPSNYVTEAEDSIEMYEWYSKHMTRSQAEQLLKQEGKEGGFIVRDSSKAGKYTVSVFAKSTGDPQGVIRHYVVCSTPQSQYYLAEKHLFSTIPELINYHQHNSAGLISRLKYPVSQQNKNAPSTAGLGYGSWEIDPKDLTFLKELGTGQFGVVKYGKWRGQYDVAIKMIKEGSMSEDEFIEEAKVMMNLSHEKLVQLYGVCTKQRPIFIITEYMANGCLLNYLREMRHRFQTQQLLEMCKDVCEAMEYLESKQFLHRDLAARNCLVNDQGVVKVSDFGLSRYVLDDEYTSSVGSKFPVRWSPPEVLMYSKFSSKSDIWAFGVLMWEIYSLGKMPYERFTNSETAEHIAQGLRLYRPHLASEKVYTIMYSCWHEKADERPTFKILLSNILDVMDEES

IC50 (Btk) [nM] | IC50 (TEC) [nM] | IC50 (panel of kinases) [nM] | SMILES
1.45 | 118 | 90 | C=CC(=O)N1CC[C@@H](Nc2n[nH]c3nccc(-c4ccc(CNC(=O)c5cc(C(C)(C)O)on5)c(F)c4)c23)C1 [Example 294, N-{[2-fluoro-4-(3-{[(3R)-1-(prop-2-enoyl)pyrrolidin-3-yl]amino}-1H-pyrazolo[3,4-b]pyridin-4-yl)phenyl]methyl}-5-(2-hydroxypropan-2-yl)-1,2-oxazole-3-carboxamide]
0.171 | 45.5 | 107 | C=CC(=O)N1CC[C@@H](Nc2n[nH]c3nccc(-c4ccc(CNC(=O)c5coc(C(C)(C)C)n5)c(F)c4)c23)C1 [Example 295, 2-tert-butyl-N-{[2-fluoro-4-(3-{[(3R)-1-(prop-2-enoyl)pyrrolidin-3-yl]amino}-1H-pyrazolo[3,4-b]pyridin-4-yl)phenyl]methyl}-1,3-oxazole-4-carboxamide]
8.97 | 1650 | 4690 | CN(C)C(=O)N1CC[C@@H](Nc2n[nH]c3nccc(-c4ccc(CNC(=O)c5coc(C(C)(C)C)n5)c(F)c4)c23)C1 [Example 296, 2-tert-butyl-N-{[4-(3-{[(3R)-1-(dimethylcarbamoyl)pyrroli-din-3-yl]amino}-1H-pyrazolo[3,4-b]pyridin-4-yl)-2-fluorophenyl]methyl}-1,3-oxazole-4-carboxamide]
1.51 | 3280 | 8030 | C=CC(=O)N1CC[C@@H](Nc2n[nH]c3nccc(-c4ccnc(N5CCn6c(cc7c6CC(C)(C)C7)C5=O)c4CO)c23)C1 [Example 298, 2-[3-(hydroxymethyl)-4-(3-{[(3R)-1-(prop-2-enoyl)pyrrolidin-3-yl]amino}-1H-pyrazolo[3,4-b]pyridin-4-yl)pyridin-2-yl]-7,7-dimethyl-3,4,7,8-tetrahydro-2H-cyclopenta[4,5]pyrrolo[1,2-a]pyrazin-1(6H)-one]
1.05 | 239 | 119 | C=CC(=O)N1CC[C@@H](Nc2n[nH]c3nccc(-c4ccc([C@H](C)NC(=O)c5noc(C(C)(C)C)n5)c(F)c4)c23)C1 [Example 303, 5-tert-butyl-N-{(1S)-1-[2-fluoro-4-(3-{[(3R)-1-(prop-2-enoyl)pyrrolidin-3-yl]amino}-1H-pyrazolo[3,4-b]pyridin-4-yl)phenyl]ethyl}-1,2,4-oxadiazole-3-carboxamide]
0.908 | 15.9 | 4.59 | C=CC(=O)N1CCC[C@@H](Nc2n[nH]c3nccc(-c4ccc(CNC(=O)c5cc(CC)on5)c(F)c4)c23)[C@H]1C [Example 304, 5-ethyl-N-{[2-fluoro-4-(3-{[(2R,3R)-2-methyl-1-(prop-2-enoyl)piperidin-3-yl]amino}-1H-pyrazolo[3,4-b]pyridin-4-yl)phenyl]methyl}-1,2-oxazole-3-carboxamide]
3.33 | 3210 | 1420 | CC(C)(C)c1cc(C(=O)NCc2ccc(-c3ccnc4[nH]nc(N5CC[C@@H](N)C5)c34)cc2F)no1 [Example 307, (R)-N-({4-[3-(3-aminopyrrolidin-1-yl)-1H-pyrazolo[3,4-b]pyridin-4-yl]-2-fluorophenyl}methyl)-5-tert-butyl-1,2-oxazole-3-carboxamide]
0.0594 | 47 | 35.6 | C=CC(=O)N[C@@H]1CCN(c2n[nH]c3nccc(-c4ccc(CNC(=O)c5cc(C(C)(C)C)on5)c(F)c4)c23)C1 [Example 308, 5-tert-butyl-N-{[2-fluoro-4-(3-{(3R)-3-[(prop-2-enoyl)amino]pyrrolidin-1-yl}-1H-pyrazolo[3,4-b]pyridin-4-yl)phenyl]methyl}-1,2-oxazole-3-carboxamide]
0.434 | 1070 | 1010 | CN(C)C/C=C/C(=O)N[C@@H]1CCN(c2n[nH]c3nccc(-c4ccc(CNC(=O)c5cc(C(C)(C)C)on5)c(F)c4)c23)C1 [Example 309, 5-tert-butyl-N-[(4-{3-[(3R)-3-{[(2E)-4-(dimethylamino)but-2-enoyl]amino}pyrrolidin-1-yl]-1H-pyrazolo[3,4-b]pyridin-4-yl}-2-fluorophenyl)methyl]-1,2-oxazole-3-carboxamide]
106 | 3040 | 471 | C=CC(=O)N1CCC(Nc2n[nH]c3nccc(-c4ccc(CNCc5noc(C(C)(C)C)n5)c(F)c4)c23)C1 (stereo not drawn) [Example 310, 1-[3-({4-[4-({[(5-tert-butyl-1,2,4-oxadiazol-3-yl)methyl]amino}methyl)-3-fluorophenyl]-1H-pyrazolo[3,4-b]pyridin-3-yl}amino)pyrrolidin-1-yl]prop-2-en-1-one]
3.79 | 2250 | 2580 | CC(C)(C)c1nc(C(=O)NCc2ccc(-c3ccnc4[nH]nc(N[C@@H]5CC[C@H](N)C5)c34)cc2F)no1 [Example 315, N-{[4-(3-{[(1R,3S)-3-aminocyclopentyl]amino}-1H-pyrazolo[3,4-b]pyridin-4-yl)-2-fluorophenyl]methyl}-5-tert-butyl-1,2,4-oxadiazole-3-carboxamide]
26.4 | 8830 | 3030 | C=CC(=O)N[C@H]1CCCC[C@@H]1Nc1n[nH]c2nccc(-c3ccc(CNC(=O)c4cc(C(C)(C)C)on4)c(F)c3)c12 [Example 318, 5-tert-butyl-N-({2-fluoro-4-[3-({(1S,2S)-2-[(prop-2-enoyl)amino]cyclohexyl}amino)-1H-pyrazolo[3,4-b]pyridin-4-yl]phenyl}methyl)-1,2-oxazole-3-carboxamide]
0.0637 | 58.5 | 86.7 | C=CC(=O)N[C@H]1CC[C@@H](Nc2n[nH]c3nccc(-c4ccc(CNC(=O)c5noc(C(C)(C)C)n5)c(F)c4)c23)C1 [Example 320, 5-tert-butyl-N-({2-fluoro-4-[3-({(1R,3S)-3-[(prop-2-enoyl)amino]cyclopentyl}amino)-1H-pyrazolo[3,4-b]pyridin-4-yl]phenyl}methyl)-1,2,4-oxadiazole-3-carboxamide]
7.4 | 734 | 445 | C=CC(=O)N[C@@H]1CC[C@H](C)N(c2n[nH]c3nccc(-c4ccc(CNC(=O)c5cc(C(C)(C)C)on5)c(F)c4)c23)C1 [Example 323, 5-tert-butyl-N-{[2-fluoro-4-(3-{(2S,5R)-2-methyl-5-[(prop-2-enoyl)amino]piperidin-1-yl}-1H-pyrazolo[3,4-b]pyridin-4-yl)phenyl]methyl}-1,2-oxazole-3-carboxamide]
0.163 | 31.3 | 87.1 | C=CC(=O)N[C@@H]1CCN(c2n[nH]c3nccc(-c4ccc(CNC(=O)c5ccc(C(C)(C)O)cc5)c(F)c4)c23)C1 [Example 325, N-{[2-fluoro-4-(3-{(3R)-3-[(prop-2-enoyl)amino]pyrrolidin-1-yl}-1H-pyrazolo[3,4-b]pyridin-4-yl)phenyl]methyl}-4-(2-hydroxypropan-2-yl)benzamide]
307 | 5720 | 5900 | CN(C)C(=O)N1CC[C@@H](Nc2n[nH]c3nccc(-c4ccc(CNC(=O)c5coc(C6CC6)n5)c(F)c4)c23)C1 [Example 329, 2-cyclopropyl-N-{[4-(3-{[(3R)-1-(dimethylcarbamoyl)pyrroli-din-3-yl]amino}-1H-pyrazolo[3,4-b]pyridin-4-yl)-2-fluorophenyl]methyl}-1,3-oxazole-4-carboxamide]

Reference: patent publication US20180194762A1 (Pharmacyclics LLC, priority 2017, published 2018)
